In patent publication US20250368666A1, “INDAZOLE COMPOUNDS” (TYRA BIOSCIENCES, INC., priority 2022, published 2025):

How the values were obtained:
[1] = system: KATO-III cell line (FGFR2 amplification); assay: Cancer cell line cell viability assay (Cell Titer-Glo), 72 hr; format: cell-based; conditions: Homo sapiens, KATO III
Summary of the method: (§1)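 5,000-20,000 cells/well o/n; cpd 9-pt 4x dil from 3 μM, n=3; 37° C/5% CO2; CTG 2.0 lumi; % DMSO ctrl; 4PL IC50.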

[2] = system: RT112/84 cell line (FGFR3-fusion); assay: as above; format: cell-based; conditions: Homo sapiens, RT112/84, RT112/84 cell line (FGFR3-fusion)
Summary of the method: as §1

[3] = system: KG-1 cell line (FGFR 1-fusion); assay: as above; format: cell-based; conditions: Homo sapiens, KG-1, KG-1 cell line (FGFR1-fusion)
Summary of the method: as §1

[4] = system: HuH7 cell line (FGF19 amplification); assay: Cancer cell line cell viability assay (Cell Titer-Glo), 120 hr; format: cell-based; conditions: Homo sapiens, Huh-7
Summary of the method: as §1

[5] = system: MDA-MB-453 cell line (FGFR4-Y367C); assay: as above; format: cell-based; conditions: Homo sapiens
Summary of the method: as §1

[6] = target: T1, FGFR3 (Homo sapiens, UniProt P22607); assay: Kinase binding assay (kinase-tagged T7 phage, affinity beads, qPCR), Kd; conditions: read-out: FGFR3 (Kd nM)
T1 construct: made in house; host or cells: E. coli (BL21-derived), T7 phage
Summary of the method: (§2)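 First, phage lysates carrying tagged kinase are made in E. coli at 32° C. Next, they are combined with blocked biotin-ligand streptavidin beads and compound at 0.9% final DMSO. Finally, eluted kinase is measured by qPCR and Kd is fitted with the Hill equation.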

[7] = target: T2, FGFR4 (Homo sapiens, UniProt P22455); assay: as above; conditions: read-out: FGFR4 (Kd nM)
T2 construct: made in house; host or cells: E. coli (BL21-derived), T7 phage
Summary of the method: as §2

[8] = target: T3, FGFR2 (Homo sapiens, UniProt P21802); assay: as above; conditions: read-out: FGFR2 (Kd nM)
T3 construct: made in house; host or cells: E. coli (BL21-derived), T7 phage
Summary of the method: as §2

[9] = target: T4, FGFR1 (Homo sapiens, UniProt P11362); assay: as above; conditions: read-out: FGFR1 (Kd nM)
T4 construct: made in house; host or cells: E. coli (BL21-derived), T7 phage
Summary of the method: as §2

[10] = target: T5, FGFR3 (V555M) (Homo sapiens, UniProt P22607, V555M); assay: as above; conditions: V555M mutant; read-out: FGFR3 (V555M) (Kd nM)
T5 construct: made in house; host or cells: E. coli (BL21-derived), T7 phage
Summary of the method: as §2

T3 sequence (P21802 22-821): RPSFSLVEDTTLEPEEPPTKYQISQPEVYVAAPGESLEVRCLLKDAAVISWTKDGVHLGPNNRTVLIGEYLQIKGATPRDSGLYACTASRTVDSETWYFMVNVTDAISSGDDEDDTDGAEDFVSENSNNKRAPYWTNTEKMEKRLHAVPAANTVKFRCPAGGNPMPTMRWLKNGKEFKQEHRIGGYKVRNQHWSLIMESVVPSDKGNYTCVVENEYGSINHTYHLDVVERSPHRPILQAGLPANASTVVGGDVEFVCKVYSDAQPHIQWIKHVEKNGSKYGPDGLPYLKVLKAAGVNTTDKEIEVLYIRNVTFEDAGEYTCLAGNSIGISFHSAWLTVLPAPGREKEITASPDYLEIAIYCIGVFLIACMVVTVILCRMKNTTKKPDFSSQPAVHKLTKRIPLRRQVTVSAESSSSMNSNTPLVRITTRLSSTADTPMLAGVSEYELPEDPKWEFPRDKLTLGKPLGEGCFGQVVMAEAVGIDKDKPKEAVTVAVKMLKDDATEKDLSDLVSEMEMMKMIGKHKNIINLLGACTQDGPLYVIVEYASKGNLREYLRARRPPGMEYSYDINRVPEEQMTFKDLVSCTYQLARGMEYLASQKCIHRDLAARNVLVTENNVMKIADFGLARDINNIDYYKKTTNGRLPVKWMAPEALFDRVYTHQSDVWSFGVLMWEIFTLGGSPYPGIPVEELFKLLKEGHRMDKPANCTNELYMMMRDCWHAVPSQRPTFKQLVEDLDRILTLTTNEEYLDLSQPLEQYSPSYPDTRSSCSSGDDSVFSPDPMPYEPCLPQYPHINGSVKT
T2 sequence (P22455 22-802): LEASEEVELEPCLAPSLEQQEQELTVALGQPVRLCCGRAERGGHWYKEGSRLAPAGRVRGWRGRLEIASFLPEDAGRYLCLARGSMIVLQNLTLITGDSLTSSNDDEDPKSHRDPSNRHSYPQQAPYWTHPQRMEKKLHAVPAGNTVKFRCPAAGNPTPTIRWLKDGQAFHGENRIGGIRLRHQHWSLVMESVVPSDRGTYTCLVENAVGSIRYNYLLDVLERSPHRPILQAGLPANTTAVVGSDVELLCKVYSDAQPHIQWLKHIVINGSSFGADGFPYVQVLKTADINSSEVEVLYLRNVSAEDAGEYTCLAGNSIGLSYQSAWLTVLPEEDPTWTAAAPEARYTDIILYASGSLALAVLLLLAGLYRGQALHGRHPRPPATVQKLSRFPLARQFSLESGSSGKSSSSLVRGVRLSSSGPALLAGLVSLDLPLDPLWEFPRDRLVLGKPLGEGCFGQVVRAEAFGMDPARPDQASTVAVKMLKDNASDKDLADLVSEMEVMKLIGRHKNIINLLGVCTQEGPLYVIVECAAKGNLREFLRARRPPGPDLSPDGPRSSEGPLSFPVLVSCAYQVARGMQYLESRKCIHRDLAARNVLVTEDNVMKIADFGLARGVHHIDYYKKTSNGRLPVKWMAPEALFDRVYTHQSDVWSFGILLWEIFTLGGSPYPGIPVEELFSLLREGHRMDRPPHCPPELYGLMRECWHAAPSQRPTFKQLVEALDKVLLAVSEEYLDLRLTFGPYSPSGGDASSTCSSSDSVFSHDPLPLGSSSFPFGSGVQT
T1 sequence (P22607 23-806): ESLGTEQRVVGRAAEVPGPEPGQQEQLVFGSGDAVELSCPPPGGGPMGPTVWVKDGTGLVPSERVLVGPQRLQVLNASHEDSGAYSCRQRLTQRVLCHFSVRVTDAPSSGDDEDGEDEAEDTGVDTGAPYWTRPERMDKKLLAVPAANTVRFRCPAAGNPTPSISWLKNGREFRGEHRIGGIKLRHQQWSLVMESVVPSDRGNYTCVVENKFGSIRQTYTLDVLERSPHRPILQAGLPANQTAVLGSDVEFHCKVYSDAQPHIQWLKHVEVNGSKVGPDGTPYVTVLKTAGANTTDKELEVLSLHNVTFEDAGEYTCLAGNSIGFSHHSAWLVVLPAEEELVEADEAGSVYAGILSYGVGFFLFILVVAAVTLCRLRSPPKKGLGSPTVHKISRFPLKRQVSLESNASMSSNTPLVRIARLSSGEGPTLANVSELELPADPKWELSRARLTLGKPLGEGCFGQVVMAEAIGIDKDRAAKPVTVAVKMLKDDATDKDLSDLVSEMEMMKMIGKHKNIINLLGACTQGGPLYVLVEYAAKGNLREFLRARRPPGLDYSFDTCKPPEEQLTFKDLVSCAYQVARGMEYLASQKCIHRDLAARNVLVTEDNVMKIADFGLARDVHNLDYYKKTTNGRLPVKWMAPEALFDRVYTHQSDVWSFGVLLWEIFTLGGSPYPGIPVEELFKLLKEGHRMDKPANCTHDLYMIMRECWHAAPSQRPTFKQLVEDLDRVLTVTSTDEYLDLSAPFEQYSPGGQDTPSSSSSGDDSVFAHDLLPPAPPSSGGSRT
T4 sequence (P11362 22-822): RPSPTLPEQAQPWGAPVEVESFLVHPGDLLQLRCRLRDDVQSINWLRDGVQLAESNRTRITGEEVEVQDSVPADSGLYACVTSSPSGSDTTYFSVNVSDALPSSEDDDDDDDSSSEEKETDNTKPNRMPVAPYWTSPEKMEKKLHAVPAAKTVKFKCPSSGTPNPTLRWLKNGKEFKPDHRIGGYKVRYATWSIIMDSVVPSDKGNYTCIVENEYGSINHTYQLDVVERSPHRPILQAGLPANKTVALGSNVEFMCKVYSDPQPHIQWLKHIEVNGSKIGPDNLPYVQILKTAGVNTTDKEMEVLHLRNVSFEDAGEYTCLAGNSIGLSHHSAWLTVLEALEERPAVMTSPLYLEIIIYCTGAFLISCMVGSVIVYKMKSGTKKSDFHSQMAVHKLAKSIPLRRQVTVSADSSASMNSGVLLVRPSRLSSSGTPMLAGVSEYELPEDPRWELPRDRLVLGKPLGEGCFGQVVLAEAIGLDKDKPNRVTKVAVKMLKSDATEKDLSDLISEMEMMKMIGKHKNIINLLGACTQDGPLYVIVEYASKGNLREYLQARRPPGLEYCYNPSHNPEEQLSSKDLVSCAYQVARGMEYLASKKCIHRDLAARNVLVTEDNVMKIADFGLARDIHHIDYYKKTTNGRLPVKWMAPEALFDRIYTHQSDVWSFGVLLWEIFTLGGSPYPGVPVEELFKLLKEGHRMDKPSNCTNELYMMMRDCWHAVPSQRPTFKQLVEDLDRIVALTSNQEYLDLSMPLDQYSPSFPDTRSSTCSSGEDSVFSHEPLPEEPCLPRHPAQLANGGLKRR
T5 sequence (P22607 23-806 V555M): as the sequence (P22607 23-806) above, with V533M counted along it

SMILES	IC50 [1] [nM]	IC50 [2] [nM]	IC50 [3] [nM]	IC50 [4] [nM]	IC50 [5] [nM]	Kd [6] [nM]	Kd [7] [nM]	Kd [8] [nM]	Kd [9] [nM]	Kd [10] [nM]
C[C@@H](Oc1ccc2[nH]nc(-c3cnc(N4CC(C)(CP(C)(C)=O)C4)c(C#N)c3)c2c1)c1c(Cl)cncc1Cl [Example 6, (R)-5-(5-(1-(3,5-dichloropyridin-4-yl)ethoxy)-1H-indazol-3-yl)-2-(3-((dimethylphosphoryl)methyl)-3-methylazetidin-1-yl)nicotinonitrile]	50 to 200	50 to 200	> 1000	0.1 to 50	0.1 to 50	1 to 50	1 to 50	1 to 50	50 to 300	1 to 50
CC(C)NC1(CC#N)CN(c2ncc(-c3n[nH]c4ccc(O[C@H](C)c5c(Cl)cncc5Cl)cc34)cc2F)C1 [Example 150, (R)-2-(1-(5-(5-(1-(3,5-dichloropyridin-4-yl)ethoxy)-1H-indazol-3-yl)-3-fluoropyridin-2-yl)-3-(isopropylamino)azetidin-3-yl)acetonitrile]	0.1 to 50	0.1 to 50	50 to 200	0.1 to 50	50 to 200	1 to 50	–	–	1 to 50	–
C[C@@H](Oc1ccc2[nH]nc(-c3cnc(N4CC(CC#N)(NCC5CC5)C4)c(F)c3)c2c1)c1c(Cl)cncc1Cl [Example 151, 2-[3-(Cyclopropylmethyl-amino)-1-[5-[5-[(1R)-1-(3,5-dichloro-4-pyridyl)ethoxy]-1H-indazol-3-yl]-3-fluoro-2-pyridyl]azetidin-3-yl]acetonitrile]	50 to 200	0.1 to 50	50 to 200	0.1 to 50	50 to 200	1 to 50	–	–	1 to 50	–
C[C@@H](Oc1ccc2[nH]nc(-c3ccc(N4CC(C)(N5C[C@@H]6C[C@H]5CO6)C4)nc3)c2c1)c1c(Cl)cncc1Cl [Example 229, (1S,4S)-5-(1-(5-(5-((R)-1-(3,5-dichloropyridin-4-yl)ethoxy)-1H-indazol-3-yl)pyridin-2-yl)-3-methylazetidin-3-yl)-2-oxa-5-aza-bicyclo[2.2.1]hep-tane]	0.1 to 50	0.1 to 50	50 to 200	–	50 to 200	1 to 50	1 to 50	1 to 50	1 to 50	1 to 50
C[C@@H](Oc1ccc2[nH]nc(-c3ccc(N4CC(C)(NCC5CC5)C4)nc3F)c2c1)c1c(Cl)cncc1Cl [Example 237, (R)—N-(cyclopropylmethyl)-1-(5-(5-(1-(3,5-dichloropyridin-4-yl)ethoxy)-1H-indazol-3-yl)-6-fluoropyridin-2-yl)-3-methylazetidin-3-amine]	0.1 to 50	0.1 to 50	0.1 to 50	–	50 to 200	1 to 50	1 to 50	1 to 50	1 to 50	1 to 50
COc1cc2[nH]nc(-c3cnc(N4CC[C@](C)(N)C4)c(C#N)c3)c2cc1O[C@H](C)c1c(Cl)cncc1Cl [Example 367, 2-((S)-3-amino-3-methylpyrrolidin-1-yl)-5-(5-((R)-1-(3,5-dichloropyridin-4-yl)ethoxy)-6-methoxy-1H-indazol-3-yl)nicotinonitrile]	0.1 to 50	0.1 to 50	50 to 200	0.1 to 50	0.1 to 50	1 to 50	1 to 50	1 to 50	1 to 50	–
COc1cc2[nH]nc(-c3cnc(N4CC[C@@](C)(N)C4)c(C#N)c3)c2cc1O[C@H](C)c1c(Cl)cncc1Cl [Example 369, 2-((R)-3-amino-3-methylpyrrolidin-1-yl)-5-(5-((R)-1-(3,5-dichloropyridin-4-yl)ethoxy)-6-methoxy-1H-indazol-3-yl)nicotinonitrile]	0.1 to 50	0.1 to 50	50 to 200	0.1 to 50	0.1 to 50	1 to 50	1 to 50	1 to 50	1 to 50	–
